Reference: PMC10354055, “An optimized Nurr1 agonist provides disease-modifying effects in Parkinson’s disease models” (Nature Communications, 2023)
“And” between values parts separate entries of the source, which are not always exact repeats. Equal entries are not always repeated.

Legend:
MPTP-induced male mice [1] = assay: AIMs scoring (dyskinesia), MPTP-induced PD model mice; format: in vivo, mouse; settings: for abnormal involuntary movements (AIMs) (in words): CQ 40, 4A7C-301 5, L-DOPA 50 mg/kg/day, i.p.; for AIMs score (20-140 min): Figure 4f, MPTP-induced mice, individual animal values
Description: (§1) Male C57BL/6 J mice (8–10 weeks, 25–30 g; Jackson Laboratories) were randomly assigned to 5 groups including vehicle (VEH), MPTP, MPTP + L-DOPA, MPTP + CQ and MPTP + 4A7C-301 (n ≥ 7 for each group). MPTP (Sigma-Aldrich) was intraperitoneally (i.p.) injected (30 mg/kg) for 5 days (Day 1-5). Different dosages of CQ (20, 40, and 80 mg/kg) and 4A7C-301 (1, 5, 20 mg/kg) were first tested to determine the effective dose window, then 40 and 5 mg/kg doses were finally selected for CQ and 4A7C-301 respectively to show the most prominent effects. CQ or 4A7C-301 was dissolved in PBS and administrated (i.p.) for 16 days starting with MPTP injection (Day 1-16). To test dyskinetic involuntary behavior, an L-DOPA injected group was included, which received 50 mg/kg of L-DOPA and 15 mg/kg of benserazide (Sigma-Aldrich) (i.p.) for 16 days (Day 1–16). All compounds were administered 6 h post-MPTP injection to avoid any effect of compounds on the MPTP metabolism in the brain. Motor and non-motor related behavior tests were performed on the following days as described in Fig. 4a in an assessor- and observer-blinded fashion. Pre-training and baseline setup for motor-related behaviors were performed 3 days prior to the injections. Mice were sacrificed and subjected to immunohistochemistry. Mice were housed at the Animal Care Facilities of McLean Hospital under a 12-h light/12-h dark cycle, ambient temperature and humidity. Animals were handled in accordance with McLean Hospital’s Institutional Animal Care and Use Committee (Protocol #: 2015N000002) and followed National Institutes of Health guidelines.
Abnormal involuntary movements (AIMs) were scored using the developed mouse dyskinesia rating scale as described in Sebastianutto et al.. Briefly, 4 mice were recorded simultaneously with a Swann HD Security System (B&H Photo-Video Inc.) for 2 min per session, every 20 min during the 140 min following drug injections (i.e., total 7 sessions), on every other or third day (Day 2, 4, 7, 9, 11, 13, and 16). Dyskinetic movements were scored for 3 subtypes of basic AIMs including axial, forelimb and orolingual AIMs, based on the severity scale from 0 to 4 which measures the duration of AIMs (0 = no dyskinesia; 1 = display dyskinesia for <50% of the observation time; 2 = display dyskinesia for >50% of the observation time; 3 = display dyskinesia for the entire observation period but ceased upon external stimuli; 4 = display continuous and unceasing dyskinesia). To get a better and more sensitive validation of mice dyskinesia, we included an amplitude AIMs score, which rates the degree of deviation of body part or muscle position from its resting position on a 0-4 scale as previously described. Finally, global AIMs score was calculated by multiplying basic AIMs and amplitude AIMs scores for each subtype on each session. Data points were plotted as the grand total of individual AIMs score on each testing day.

MPTP-induced male mice [2] = assay: Pole test, MPTP-induced PD model mice; format: in vivo, mouse; settings: for Time to traverse: Figure 4c, MPTP-induced mice, individual animal values
Description: as §1, with “MPTP” for “Male C57BL/6 J mice (8–10 weeks, 25–30 g; Jackson Laboratories) were randomly assigned to 5 groups including vehicle (VEH), MPTP, MPTP + L-DOPA, MPTP + CQ and MPTP + 4A7C-301 (n ≥ 7 for each group). MPTP”, “Different dosages of CQ (20, 40, and 80 mg/kg) and 4A7C-301 (1, 5, 20 mg/kg) were first tested to determine the effective dose window, then 40 and 5 mg/kg doses were finally selected for CQ and 4A7C-301 respectively to show the most prominent effects. CQ or 4A7C-301 was dissolved in PBS and administrated (i.p.) for 16 days starting with MPTP injection (Day 1-16).” left out
Mice were trained to descend a vertical metal rod wrapped with rough tape (80 cm high, 12 mm diameter) once per day for 2 days, and then the baseline was measured before the pole test (3 days before the MPTP injection or the first pole test at week 2). Mice were placed head-upward on the pole and total descent time was recorded.

HeLa cells = assay: Lysosomal pH detection, LysoSensor, HeLa cells; format: cell-based; settings: for Lysosomal pH: Supplementary Figure S7d, individual replicates
Description: Lysosomal pH was detected as previously described. Briefly, after incubation in EBSS containing BafA1 (10 nM), CQ (20 µM), or 4A7C-301 (1 µM) for 6 h, HeLa and N27-A cells were treated with LysoSensor™ Yellow/Blue DND-160 (5 µM; Life Technology) for 45 min, followed by 2 washes in HEPES buffer (Gibco). Fluorescence images at excitation/emission wavelengths of 360/460 nm and 470/525 nm were taken immediately using a 400 nm dichroic mirror (KEYENCE). The ratio of fluorescence intensities (F360/470) were measured and calculated manually using ImageJ for each cell. The average pH from measuring 5 cells from each of three wells for each treatment group in both HeLa and N27-A cells was calculated by fitting the F360/470 values to a plotted pH calibration curve with KCl/NaCl buffered from pH 3.5 to 7.0 using GraphPad Prism (Version 8.0.2).

MN9D cells = assay: Cell viability, MTT reduction, MPP+-treated MN9D cells; format: cell-based, mouse
Description: Cell viability was determined using 3-(4,5-dimethylthiazol-2-yl)-2,5-diphenyltetrazolium bromide (MTT) as previously described[60]. Briefly, cells were incubated with 5 mg/ml of MTT (Sigma-Aldrich) solution for 3.5 h at 37 °C. MTT formazan crystals were dissolved in 10 times the volume of MTT solvent (4 mM HCl and 0.1% Nonidet P-40 in isopropanol) and the absorbance from the generated blue formazan was measured at 570 nm after 15 min incubation at room temperature. Cell viability was calculated as a percentage (%) of MTT reduction relative to vehicle control.

MPTP-induced male mice [3] = assay: Cylinder test, MPTP-induced PD model mice; format: in vivo, mouse; settings: for Number of rearing: Figure 4d, MPTP-induced mice, individual animal values
Description: as §1, with “MPTP” for “Male C57BL/6 J mice (8–10 weeks, 25–30 g; Jackson Laboratories) were randomly assigned to 5 groups including vehicle (VEH), MPTP, MPTP + L-DOPA, MPTP + CQ and MPTP + 4A7C-301 (n ≥ 7 for each group). MPTP”, “Different dosages of CQ (20, 40, and 80 mg/kg) and 4A7C-301 (1, 5, 20 mg/kg) were first tested to determine the effective dose window, then 40 and 5 mg/kg doses were finally selected for CQ and 4A7C-301 respectively to show the most prominent effects. CQ or 4A7C-301 was dissolved in PBS and administrated (i.p.) for 16 days starting with MPTP injection (Day 1-16).” left out
Mice were placed in a transparent plastic cylinder (15.5 cm high, 12.7 cm diameter) with a mirror behind it. Spontaneous activity was recorded and measured as counting the number of rearing events for 3 min session. A rear was considered only when the mouse touched the wall of the cylinder with its forelimb paws while standing on its hindlimbs (vertical movement) to count meaningful physiological movements.

[4] = CQ 40, 4A7C-301 5, L-DOPA 50 mg/kg/day, i.p., 16 days
[5] = Fig. S3e, MPP+, Control, CQ 100 µM, 4A7C-301 1 µM
[6] = Fig. S3e, MPP+, Nurr1 KD, CQ 100 µM, 4A7C-301 1 µM
[7] = Fig. S3e, MPP+, Nurr1 OE, CQ 100 µM, 4A7C-301 1 µM

Row | SMILES | abnormal involuntary movements (AIMs) (in words) (MPTP-induced male mice [1]) | AIMs score (20-140 min) (MPTP-induced male mice [1]; day 2) | AIMs score (20-140 min) (MPTP-induced male mice [1]; day 4) | AIMs score (20-140 min) (MPTP-induced male mice [1]; day 7) | AIMs score (20-140 min) (MPTP-induced male mice [1]; day 9) | AIMs score (20-140 min) (MPTP-induced male mice [1]; day 11) | AIMs score (20-140 min) (MPTP-induced male mice [1]; day 13) | AIMs score (20-140 min) (MPTP-induced male mice [1]; day 16) | Time to traverse (MPTP-induced male mice [2]) | Lysosomal pH (HeLa cells) | MTT reduction (%) (MN9D cells; Fig. S3c, with MPP+, 1 µM) | MTT reduction (%) (MN9D cells; Fig. S3c, with MPP+, 5 µM) | MTT reduction (%) (MN9D cells; Fig. S3c, with MPP+, 10 µM) | MTT reduction (%) (MN9D cells; [5]) | MTT reduction (%) (MN9D cells; [6]) | MTT reduction (%) (MN9D cells; [7]) | Number of rearing (MPTP-induced male mice [3]) | other results
1 | CCN1CCN(c2cc(N3CCN(CC)CC3)nc(NCCNc3ccnc4cc(Cl)ccc34)n2)CC1 [4A7C-301, N^1-(4,6-bis(4-ethylpiperazin-1-yl)pyrimidin-2-yl)-N^2-(7-chloroquinolin-4-yl)ethane-1,2-diamine] | did not induce any detectable AIMs | 0 | 0 | 0 | 0 | 0 | 0 | 0 | 9.46 s and 8.08 s and 8.64 s and 7.97 s and 6.34 s and 6.11 s and 6.58 s and 5.5 s and 7.12 s | 4.318 and 4.4486 and 4.774 and 4.612 and 4.807 and 4.905 and 4.677 and 3.797 and 4.742 and 4.872 and 3.764 and 3.96 and 3.927 and 3.536 | 63.0435% and 64.1304% and 62.5% | 63.587% and 61.9565% and 64.6739% | 63.587% and 61.9565% | 68.2632% and 62.1053% and 68.2105% and 63.0526% | 31.8421% and 30.5263% and 31.5789% and 29.7368% | 85.4211% and 91.8947% and 89.4737% and 88.2632% | 34 and 51 and 29 and 33 and 22 and 71 and 46 | motor function, pole test (in words) (MPTP-induced male mice [2]; [4]): significantly rescued; MTT reduction (%) (MN9D cells; Fig. S1f, with MPP+, conc. 0.1 µM, replicates): 55.1664% and 54.641% and 56.7426%; MTT reduction (%) (MN9D cells; Fig. S1f, with MPP+, conc. 0.5 µM, replicates): 58.8441% and 58.3187% and 60.4203%; MTT reduction (%) (MN9D cells; Fig. S1f, with MPP+, conc. 1 µM, replicates): 62.5219% (2×) and 61.4711%; MTT reduction (%) (MN9D cells; Fig. S1f, with MPP+, conc. 5 µM, replicates): 60.9457% and 62.5219% and 63.0473%; MTT reduction (%) (MN9D cells; Fig. S1f, with MPP+, conc. 10 µM, replicates): 61.9965% and 61.4711% and 63.0473%; MTT reduction (%) (MN9D cells; Fig. S3c, with MPP+, 0.1 µM): 54.8913% and 57.0652% and 55.4348%; MTT reduction (%) (MN9D cells; Fig. S3c, with MPP+, 0.5 µM): 59.2391% and 59.7826% and 60.3261%; motor function, cylinder test (in words) (MPTP-induced male mice [3]; [4]): significantly rescued
2 | CCN(CC)CCCC(C)Nc1ccnc2cc(Cl)ccc12 (stereo not shown) [CQ, chloroquine] | did not induce any detectable AIMs | 0 | 0 | 0 | 0 | 0 | 0 | 0 | 6.3 s and 5.45 s and 6.58 s and 7.09 s and 8.95 s and 7.99 s and 7.69 s and 9.73 s and 9.95 s | 5.589 and 4.742 and 6.013 and 6.078 and 6.11 and 5.947 and 5.068 and 6.501 and 6.208 and 6.469 and 5.524 and 5.98 and 6.534 and 5.556 | 53.8043% and 53.2609% and 51.6304% | 55.4348% and 56.5217% | 57.6087% and 55.9783% and 57.0652% | 62.8947% and 66.3158% and 61.0526% and 60.2632% | 34.7368% and 29.4737% and 30.7895% and 32.6316% | 86.0526% and 90.2105% and 84.3158% and 89.4737% | 9 and 22 and 80 and 21 and 16 and 37 and 89 and 30 and 61 | lysosomal pH (in words) (HeLa cells; HeLa, BafA1 10 nM, CQ 20 µM, 4A7C-301 1 µM): significantly increased; MTT reduction (%) (MN9D cells; Fig. S3c, with MPP+, 50 µM): 61.413% and 59.7826%; MTT reduction (%) (MN9D cells; Fig. S3c, with MPP+, 100 µM): 62.5% and 61.413% and 64.6739%
